{"source": "patent US6730661B1", "about": "“Nutritional composition which contain non-digestible polysaccharides and use thereof to reduce transport through tight junctions” (N. V. Nutricia, priority 1999, dated 2004)", "key": {"[1]": {"tested_on": "guinea pig intestinal epithelium", "experiment": "HRP flow over guinea pig intestinal epithelium in Ussing chamber, tight junctions opened by caprate", "conditions": "in vitro, FIG. 2", "method": "Use was made of a model set-up for determination of the effect of the polysaccharides used.\nA test animal, such as a rat or guinea pig, was brought under narcosis. The stomach wall was then opened and a piece of the ileum tied off. The intestinal tissue was removed and stripped of layers of muscle. The preparation thus obtained was then stretched between two compartments through which oxygenated solutions flowed (FIG. 1). The preparation was treated either with buffer (control or blank) or caprate in buffer in order to open the tight junctions (100% permeability) or with the combination of caprate and a certain concentration of polysaccharide in buffer. As a measure of the permeability the transport of HRP (horseradish peroxidase) over the preparation was determined in accordance with known methods.\nThe in vitro effect of dextran (70 kD) on the increased HRP flow caused by caprate in a guinea pig intestinal epithelium is shown in FIG. 2."}, "pig intestine": {"tested_on": "pig intestine", "experiment": "in situ ischaemia reperfusion model in pigs, HRP flow in jejunum segments", "assay_type": "in vivo", "conditions": "5.6 g/l in lumen during ischaemia, pig under full narcosis, caudal jejunum, FIG. 5", "method": "The figure relates to experiments with a pig under full narcosis, in which segments of the caudal section of the jejunum were taken. The effect of 5.6 g/l dextran (70 kD)(D) in the in situ ischaemia reperfusion model in pigs as a function of the duration of ischaemia was determined in comparison with control (C) where no dextran was introduced into the lumen during ischaemia."}, "[2]": {"tested_on": "duodenum biopsies of a child suffering from microvillus inclusion disease (MVID)", "experiment": "Permeability to HRP of duodenal suction biopsies of a microvillus inclusion disease patient in Ussing chamber", "set-up": "species or system human", "conditions": "after adding 4.2 g/l to luminal compartment", "from_the_text": "Suction biopsies were taken from the duodenum of a child suffering from microvillus inclusion disease (MVID)."}}}
{"substance": "dextran [dextran (70 kD)]", "values": [{"measurement": "effect on the increased HRP flow caused by caprate", "setting": "[1]", "value": "inhibition of the effects of caprate"}, {"measurement": "HRP flow in the pig intestine increased by ischaemia, compared with control", "setting": "pig intestine", "value": "significant fall"}, {"measurement": "HRP in the paracellular spaces or tight junctions by electron microscopy", "setting": "[2]", "value": "No further HRP could be detected"}]}
